# Reference: patent publication US20120190669A1, “OXINDOLE COMPOUNDS” (CYLENE PHARMACEUTICALS, INC., priority 2008, published 2012)
# Where two headings read alike, the source gives them in different places.
# Key:
# recombinant PIM-1 = recombinant PIM-1 (Homo sapiens, UniProt P11309); test: PIM-1 kinase assay (radiometric, 15 uM ATP, DMSO 4%); assay type: biochemical; settings: for inhibition at 0.5 µM: Table 5, compound at 500 nM, read-out: PIM1: % inh 500 nM
# K-562 = test: Alamar Blue cell proliferation assay, K-562; assay type: cell-based; settings: Homo sapiens
# Method: (§1) A representative cell-proliferation assay protocol using Alamar Blue dye (stored at 4° C., use 20 ul per well) is described hereafter.
# (§2) 96-Well Plate Setup and Compound Treatment
# (§3) a. Split and trypsinize cells.
# (§4) b. Count cells using hemocytometer.
# (§5) c. Plate 4,000-5,000 cells per well in 100 μl of medium and seed into a 96-well plate according to the following plate layout. Add cell culture medium only to wells B10 to B12. Wells B1 to B9 have cells but no compound added.
# (§6) d. Add 100 μl of 2× drug dilution to each well in a concentration shown in the plate layout above. At the same time, add 100 μl of media into the control wells (wells 1310 to B12). Total volume is 200 μl/well.
# (§7) e. Incubate four (4) days at 37° C., 5% CO2 in a humidified incubator.
# (§8) f. Add 20 μl Alamar Blue reagent to each well.
# (§9) g. Incubate for four (4) hours at 37° C., 5% CO2 in a humidified incubator.
# (§10) h. Record fluorescence at an excitation wavelength of 544 nm and emission wavelength of 590 nm using a microplate reader.
# (§11) In the assays, cells are cultured with a test compound for approximately four days, the dye is then added to the cells and fluorescence of […] dye is detected after approximately four hours. Different types of cells can be utilized in the assays (e.g., HCT-116 human colorectal carcinoma cells, PC-3 human prostatic cancer cells and MiaPaca human pancreatic carcinoma cells).
# [1] = test system: MiaPaca human pancreatic carcinoma cells; test: Alamar Blue cell proliferation assay, MiaPaCa; assay type: cell-based
# Method: as §1, §2, §3, §4, §5, §6, §7, §8, §9, §10, §11
# [2] = test system: PC-3 human prostatic cancer cells; test: Alamar Blue cell proliferation assay, PC3; assay type: cell-based
# Method: as §1, §2, §3, §4, §5, §6, §7, §8, §9, §10, §11
# MV-4-11 = test: Alamar Blue cell proliferation assay, MV-4-11; assay type: cell-based; settings: Homo sapiens
# Method: as §1, §2, §3, §4, §5, §6, §7, §8, §9, §10, §11
# [3] = test system: HCT-116 human colorectal carcinoma cells; test: Alamar Blue cell proliferation assay, HCT-116; assay type: cell-based
# Method: as §1, §2, §3, §4, §5, §6, §7, §8, §9, §10, §11
# MDAMB-231 = test: Alamar Blue cell proliferation assay, MDAMB-231; assay type: cell-based; settings: Homo sapiens, MDA-MB-231, Table 3, read-out: AB: MDAMB-231
# Method: as §1, §2, §3, §4, §5, §6, §7, §8, §9, §10, §11
# phospho FLT3 = phospho FLT3 cell-based data; settings: Table 4
# phospho BAD = phospho BAD cell-based data; settings: Table 4
# [4] = K562, Table 5, read-out: AB: K-562 IC50
# [5] = MIA PaCa-2, Table 5, read-out: AB: MiaPaCa IC50
# [6] = Table 5, read-out: AB: PC3 IC50
# [7] = MV4-11, Table 5, read-out: AB: MV-4-11 IC50
# [8] = Table 5, read-out: AB: HCT-116 IC50
# [9] = Table 3, DMSO 4%, read-out: PIM1: IC50 (DMSO 4%)
# [10] = K562, Table 3, read-out: AB: K-562
# [11] = MIA PaCa-2, Table 3, read-out: AB: MiaPaCa
# [12] = MV4-11, Table 3, read-out: AB: MV-4-11
# [13] = Table 4, 15 um ATP, read-out: PIM1: IC50 (15 um ATP)
# [14] = K562, Table 4, read-out: AB: K-562
# [15] = MIA PaCa-2, Table 4, read-out: AB: MiaPaCa
# [16] = MV4-11, Table 4, read-out: AB: MV-4-11
# recombinant PIM-1, sequence (P11309 whole entry): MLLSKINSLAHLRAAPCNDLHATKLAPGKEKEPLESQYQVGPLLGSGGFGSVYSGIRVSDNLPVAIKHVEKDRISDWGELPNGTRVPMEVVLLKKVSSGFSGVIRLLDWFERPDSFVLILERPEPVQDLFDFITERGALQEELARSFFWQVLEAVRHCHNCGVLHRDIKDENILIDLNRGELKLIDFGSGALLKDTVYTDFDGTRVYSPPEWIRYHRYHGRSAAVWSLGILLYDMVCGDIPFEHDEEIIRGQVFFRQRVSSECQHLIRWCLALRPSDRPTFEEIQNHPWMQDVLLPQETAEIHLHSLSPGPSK
SMILES,inhibition at 0.5 µM (recombinant PIM-1) [%],IC50 (K-562; [4]) [µM],"IC50 [1, 5] [µM]","IC50 [2, 6] [µM]",IC50 (MV-4-11; [7]) [µM],"IC50 [3, 8] [µM]",IC50 (recombinant PIM-1; [9]) [µM],IC50 (K-562; [10]) [µM],"IC50 [1, 11] [µM]",IC50 (MDAMB-231) [µM],IC50 (MV-4-11; [12]) [µM],"IC50 ([2]; Table 3, read-out: AB: PC3) [µM]",also measured
CN(C)C1CCN(C(=O)c2cccc(-c3coc(/C=C4/C(=O)Nc5ccc(F)cc54)c3)c2)CC1 [drawing 256],10.8,3.7,> 10,7.53,0.516,3.85,,,,,,,
CCN(CC)CCNC(=O)c1ccc(-c2ccc(/C=C3/C(=O)Nc4ccc(Cl)cc43)o2)cc1 [drawing 216],,,,,,,< 1,> 10,> 10,> 10,> 1,,
CCN(CC)CCNC(=O)c1cccc(-c2coc(/C=C3/C(=O)Nc4ccc(F)cc43)c2)c1 [drawing 254],11.5,2.44,> 10,> 10,0.271,3.6,,,,,,,
Cn1cncc1CNC(=O)c1cccc(-c2coc(/C=C3/C(=O)Nc4ccc(F)cc43)c2)c1 [drawing 252],12.7,> 10,> 10,> 10,1.38,> 10,,,,,,,
CN1CCCC(NC(=O)c2cccc(-c3coc(/C=C4/C(=O)Nc5ccc(F)cc54)c3)c2)C1 (centres unmarked) [drawing 249],6.11,3.12,> 10,7,1.01,4.65,,,,,,,
CN(C)C1CCN(C(=O)c2cccc(-c3coc(/C=C4/C(=O)Nc5ccccc54)c3)c2)CC1,-38.8,0.077,9.37,> 10,2.14,7.01,,,,,,,
O=C1Nc2ccccc2/C1=C\c1cc(-c2cccc(C(=O)NCc3ccncc3)c2)co1,-4.22,> 10,> 10,> 10,0.168,> 10,,,,,,,
O=C1Nc2ccc(Cl)cc2/C1=C/c1ccc(-c2ccc3cc(O)ccc3c2)o1,,,,,,,< 1,> 10,> 10,> 10,0.189,12,
COC(=O)c1cccc(-c2coc(/C=C3/C(=O)Nc4ccccc43)c2)c1,-18.4,1.31,4.34,1.89,> 10,2.33,,,,,,,
CCN1CCCC1CNC(=O)c1cccc(-c2coc(/C=C3/C(=O)Nc4ccc(F)cc43)c2)c1 (centres unmarked) [drawing 250],17.1,0.941,> 10,> 10,0.485,5.23,,,,,,,
O=C1Nc2ccc(Cl)cc2/C1=C\c1ccc(-c2cccc(C(=O)N3CCCNCC3)c2)o1,,,,,,,,0.342,0.815,3.15,,9.62,
O=C1Nc2ccc(Cl)cc2/C1=C\c1ccc(-c2cccc(-c3nnc[nH]3)c2)o1,,,,,,,< 1,> 10,> 10,> 10,> 10,> 30,
CC(=O)Nc1cccc(-c2ccc(/C=C3\C(=O)Nc4ccc(Cl)cc43)o2)c1,,,,,,,< 1,> 10,> 10,> 10,0.748,2.68,
Cn1cncc1CNC(=O)c1cccc(-c2coc(/C=C3/C(=O)Nc4ccccc43)c2)c1,-14.6,> 10,> 10,> 10,0.998,> 10,,,,,,,
NC(=O)c1ccc(-c2ccc(/C=C3\C(=O)Nc4ccc(Cl)cc43)o2)cc1,,,,,,,< 1,> 10,> 10,> 10,,> 30,
CN1CCCCC1CNC(=O)c1cccc(-c2coc(/C=C3/C(=O)Nc4ccc(F)cc43)c2)c1 (centres unmarked) [drawing 253],9.42,1.65,> 10,> 10,0.627,4.47,,,,,,,
NC(=O)c1cccc(-c2ccc(/C=C3\C(=O)Nc4ccc(Cl)cc43)o2)c1,,,,,,,< 1,> 10,> 10,> 10,1.91,> 30,
O=C1Nc2ccc(Cl)cc2/C1=C\c1ccc(-c2cccc(C(=O)NCCCn3ccnc3)c2)o1 [drawing 233],,,,,,,,,,,,,"IC50 (recombinant PIM-1; [13]): 0.376 µM; IC50 (K-562; [14]): 0.288 µM; IC50 [1, 15]: 0.233 µM; IC50 (MV-4-11; [16]): 0.067 µM; IC50 ([3]; Table 4, read-out: AB: HCT-116): 0.314 µM; IC50 (phospho FLT3): > 10 µM; IC50 (phospho BAD): 1.86 µM"
O=C1Nc2ccc(Cl)cc2/C1=C\c1ccc(-c2ccc(OCCN3CCOCC3)cc2)o1,,,,,,,< 1,> 10,> 10,> 10,> 10,> 30,
CN(C)CCNC(=O)c1cccc(-c2ccc(/C=C3/C(=O)Nc4ccc(Cl)cc43)o2)c1 [drawing 232],,,,,,,,,,,,,"IC50 (recombinant PIM-1; [13]): 0.289 µM; IC50 (K-562; [14]): 0.367 µM; IC50 [1, 15]: 1.94 µM; IC50 (MV-4-11; [16]): 2.99 µM; IC50 ([3]; Table 4, read-out: AB: HCT-116): 1.19 µM; IC50 (phospho FLT3): 5.29 µM; IC50 (phospho BAD): 0.444 µM"
CC/C(=C1\C(=O)Nc2ccc(Cl)cc21)c1ccc(-c2cccc(C(=O)N3CCCN(C)CC3)c2)o1,,,,,,,,0.153,0.302,> 10,0.109,> 30,
CCN(CC)CCNC(=O)c1cccc(-c2coc(/C=C3/C(=O)Nc4ccccc43)c2)c1,-10.9,> 10,9.23,> 10,0.761,7.82,,,,,,,
O=C1Nc2ccc(Cl)cc2/C1=C/c1ccc(-c2cnn(CCN3CCOCC3)c2)o1,,,,,,,< 1,2.32,> 10,> 10,0.198,> 30,
CS(=O)(=O)Nc1ccc(-c2ccc(/C=C3\C(=O)Nc4ccc(Cl)cc43)o2)cc1,,,,,,,< 1,2.88,> 10,> 10,2.22,11,
CN1CCCCC1CNC(=O)c1cccc(-c2coc(/C=C3/C(=O)Nc4ccccc43)c2)c1 (centres unmarked),-28.9,0.099,2.4,1.65,0.12,2.49,,,,,,,
CN1CCCC(NC(=O)c2cccc(-c3coc(/C=C4/C(=O)Nc5ccccc54)c3)c2)C1 (centres unmarked),-22.7,> 10,> 10,> 10,0.315,4.31,,,,,,,
O=C1Nc2ccc(F)cc2/C1=C\c1cc(-c2cccc(C(=O)NCc3ccncc3)c2)co1 [drawing 255],-19.1,> 10,> 10,,1.57,> 10,,,,,,,
